Measurements: ChEMBL document CHEMBL3397039, “Anti-inflammatory activity of phenolic compounds from the whole plant of Scutellaria indica” (Bioorg Med Chem Lett, 2015)
pIC50: −log10 of the molar value.

Tests used:
[1] = tested on: RAW264.7; assay: Anti-inflammatory activity in mouse RAW264.7 cells assessed as inhibition of LPS-induced nitric oxide production by Griess reaction based method; format: functional, cell-based
[2] = tested on: RAW264.7; assay: Toxicity against mouse RAW264.7 cells at 30 uM after 24 hrs in presence of LPS by MTT assay; format: cell-based; details: raw264.7, 24 h
[3] = tested on: RAW264.7; assay: Toxicity against mouse RAW264.7 cells at 30 uM after 24 hrs in absence of LPS by MTT assay; format: cell-based; details: raw264.7, 24 h
[4] = tested on: RAW264.7; assay: Inhibition of LPS-induced iNOS protein expression in mouse RAW264.7 cells by Western blotting method; format: functional, cell-based
[5] = tested on: RAW264.7; assay: Effect on alpha-tubulin protein expression in mouse RAW264.7 cells up to 30 uM by Western blotting method; format: ADME, cell-based

Structure (SMILES)	pIC50 [1]	Activity [2]	Activity [3]	inhibition [4]	Activity [5]
O=C(O)[C@H]1O[C@@H](Oc2c(O)cc(O)c3c(=O)cc(-c4ccccc4)oc23)[C@H](O)[C@@H](O)[C@@H]1O	< 4.52	Non-toxic	Non-toxic	–	–
O=c1cc(-c2ccc(O)c(O)c2)oc2cc(O)cc(O)c12 [LUTEOLIN]	5.14	Non-toxic	Non-toxic	Dose-dependent effect	Non-toxic
COC(=O)[C@H]1O[C@@H](Oc2cc(O)c3c(c2OC)O[C@H](c2cccc(OC)c2)CC3=O)[C@H](O)[C@@H](O)[C@@H]1O	< 4.52	Non-toxic	Non-toxic	–	–
COC(=O)[C@H]1O[C@@H](Oc2c(O)cc(O)c3c(=O)cc(-c4ccccc4)oc23)[C@H](O)[C@@H](O)[C@@H]1O	< 4.52	Non-toxic	Non-toxic	–	–
COc1ccccc1[C@@H]1CC(=O)c2c(O)cc(O[C@@H]3O[C@H](CO)[C@@H](O)[C@H](O)[C@H]3O)c(OC)c2O1	< 4.52	Non-toxic	Non-toxic	–	–
COc1ccc([C@@H]2CC(=O)c3c(O)c(OC)c(OC)c(OC)c3O2)cc1	4.56	Non-toxic	Non-toxic	–	–
COc1c(O[C@@H]2O[C@H](C(=O)O)[C@@H](O)[C@H](O)[C@H]2O)cc(O)c2c1O[C@H](c1ccccc1O)CC2=O	< 4.52	Non-toxic	Non-toxic	–	–
COc1cc(O)c2c(c1OC)O[C@H](c1cc(O)ccc1O[C@@H]1O[C@H](COC(C)=O)[C@@H](O)[C@H](O)[C@H]1O)CC2=O	< 4.52	Non-toxic	Non-toxic	–	–
COc1c(O)cc(O)c2c(=O)cc(-c3ccc(O)cc3)oc12 [4'-HYDROXYWOGONIN]	4.90	Non-toxic	Non-toxic	–	–
COc1cc(O)c2c(c1OC)O[C@H](c1c(O)cccc1O[C@@H]1O[C@H](CO)[C@@H](O)[C@H](O)[C@H]1O)CC2=O	< 4.52	Non-toxic	Non-toxic	–	–
COC(=O)[C@H]1O[C@@H](Oc2ccccc2[C@@H]2CC(=O)c3c(O)cc(OC)c(OC)c3O2)[C@H](O)[C@@H](O)[C@@H]1O	< 4.52	Non-toxic	Non-toxic	–	–
COc1cc(O)c2c(c1OC)O[C@H](c1cc(O)ccc1O[C@@H]1O[C@H](CO)[C@@H](O)[C@H](OC(=O)c3ccc(O)cc3)[C@H]1O)CC2=O	< 4.52	Non-toxic	Non-toxic	–	–
